{"source": "ChEMBL document CHEMBL4130451", "about": "“Design and Synthesis of N-Aryl Phenoxyethoxy Pyridinones as Highly Selective and CNS Penetrant mGlu3 NAMs” (ACS Med Chem Lett, 2017)", "key": {"[1]": {"biological_target": "Metabotropic glutamate receptor 5 (Rattus norvegicus, UniProt P31424)", "sequence (P31424 whole entry)": "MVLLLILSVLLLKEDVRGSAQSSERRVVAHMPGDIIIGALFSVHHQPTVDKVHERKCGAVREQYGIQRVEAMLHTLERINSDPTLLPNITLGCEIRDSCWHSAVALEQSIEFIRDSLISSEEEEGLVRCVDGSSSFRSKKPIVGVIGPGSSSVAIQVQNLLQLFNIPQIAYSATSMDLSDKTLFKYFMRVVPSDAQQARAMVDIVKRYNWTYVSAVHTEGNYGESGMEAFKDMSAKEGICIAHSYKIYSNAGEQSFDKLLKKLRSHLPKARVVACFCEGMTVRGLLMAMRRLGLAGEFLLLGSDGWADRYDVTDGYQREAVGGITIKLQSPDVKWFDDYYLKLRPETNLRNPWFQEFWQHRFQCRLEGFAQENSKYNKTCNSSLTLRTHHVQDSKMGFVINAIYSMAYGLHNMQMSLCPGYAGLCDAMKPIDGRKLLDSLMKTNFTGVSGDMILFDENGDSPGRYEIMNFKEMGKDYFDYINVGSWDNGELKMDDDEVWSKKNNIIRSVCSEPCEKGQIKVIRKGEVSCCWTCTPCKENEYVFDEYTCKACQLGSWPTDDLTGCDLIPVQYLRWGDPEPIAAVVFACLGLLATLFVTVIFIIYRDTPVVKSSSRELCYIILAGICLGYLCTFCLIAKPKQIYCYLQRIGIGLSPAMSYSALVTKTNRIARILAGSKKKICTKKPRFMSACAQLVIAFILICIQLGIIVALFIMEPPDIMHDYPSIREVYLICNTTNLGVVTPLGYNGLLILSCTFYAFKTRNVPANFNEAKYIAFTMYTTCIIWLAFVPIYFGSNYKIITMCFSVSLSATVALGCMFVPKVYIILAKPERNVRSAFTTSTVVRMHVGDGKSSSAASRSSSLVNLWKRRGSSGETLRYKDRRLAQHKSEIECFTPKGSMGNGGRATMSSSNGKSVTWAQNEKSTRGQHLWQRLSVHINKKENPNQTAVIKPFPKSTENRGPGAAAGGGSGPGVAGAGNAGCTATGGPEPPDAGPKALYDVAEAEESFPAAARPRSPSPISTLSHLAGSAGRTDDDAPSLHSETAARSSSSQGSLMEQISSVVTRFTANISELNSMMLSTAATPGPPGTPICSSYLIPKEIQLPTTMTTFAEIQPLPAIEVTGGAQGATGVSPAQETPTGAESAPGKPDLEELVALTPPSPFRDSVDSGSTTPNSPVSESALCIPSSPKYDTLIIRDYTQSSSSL", "assay": "Positive allosteric modulation of rat mGlu5 receptor expressed in HEK293A cells assessed as increase in glutamate induced-calcium mobilization preincubated for 2.3 mins followed by glutamate addition measured for 1.9 mins by Fluo-4 AM dye based fluorescence assay", "assay_type": "functional, cell-based"}, "Cytochrome P450 3A4": {"biological_target": "Cytochrome P450 3A4 (Homo sapiens, UniProt P08684)", "sequence (P08684 whole entry)": "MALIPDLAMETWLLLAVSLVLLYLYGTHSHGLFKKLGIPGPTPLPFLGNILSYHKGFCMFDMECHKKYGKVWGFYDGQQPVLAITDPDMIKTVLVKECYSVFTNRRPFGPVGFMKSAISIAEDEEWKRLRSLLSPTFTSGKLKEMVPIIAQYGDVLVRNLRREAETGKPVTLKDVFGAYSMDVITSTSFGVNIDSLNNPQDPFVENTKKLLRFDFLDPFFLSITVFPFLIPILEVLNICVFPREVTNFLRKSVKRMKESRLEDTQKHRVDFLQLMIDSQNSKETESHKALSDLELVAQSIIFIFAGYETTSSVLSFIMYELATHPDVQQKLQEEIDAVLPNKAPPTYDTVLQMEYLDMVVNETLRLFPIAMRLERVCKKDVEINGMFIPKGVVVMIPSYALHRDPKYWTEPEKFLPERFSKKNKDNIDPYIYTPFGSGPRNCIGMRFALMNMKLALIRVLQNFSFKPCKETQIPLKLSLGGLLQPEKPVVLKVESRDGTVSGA", "assay": "Inhibition of CYP3A4 in human liver microsomes using midazolam as substrate after 15 mins in presence of NADPH by LC/MS/MS analysis", "assay_type": "ADME"}, "[2]": {"biological_target": "Metabotropic glutamate receptor 7 (Rattus norvegicus) (UniProt P35400)", "sequence (P35400 whole entry)": "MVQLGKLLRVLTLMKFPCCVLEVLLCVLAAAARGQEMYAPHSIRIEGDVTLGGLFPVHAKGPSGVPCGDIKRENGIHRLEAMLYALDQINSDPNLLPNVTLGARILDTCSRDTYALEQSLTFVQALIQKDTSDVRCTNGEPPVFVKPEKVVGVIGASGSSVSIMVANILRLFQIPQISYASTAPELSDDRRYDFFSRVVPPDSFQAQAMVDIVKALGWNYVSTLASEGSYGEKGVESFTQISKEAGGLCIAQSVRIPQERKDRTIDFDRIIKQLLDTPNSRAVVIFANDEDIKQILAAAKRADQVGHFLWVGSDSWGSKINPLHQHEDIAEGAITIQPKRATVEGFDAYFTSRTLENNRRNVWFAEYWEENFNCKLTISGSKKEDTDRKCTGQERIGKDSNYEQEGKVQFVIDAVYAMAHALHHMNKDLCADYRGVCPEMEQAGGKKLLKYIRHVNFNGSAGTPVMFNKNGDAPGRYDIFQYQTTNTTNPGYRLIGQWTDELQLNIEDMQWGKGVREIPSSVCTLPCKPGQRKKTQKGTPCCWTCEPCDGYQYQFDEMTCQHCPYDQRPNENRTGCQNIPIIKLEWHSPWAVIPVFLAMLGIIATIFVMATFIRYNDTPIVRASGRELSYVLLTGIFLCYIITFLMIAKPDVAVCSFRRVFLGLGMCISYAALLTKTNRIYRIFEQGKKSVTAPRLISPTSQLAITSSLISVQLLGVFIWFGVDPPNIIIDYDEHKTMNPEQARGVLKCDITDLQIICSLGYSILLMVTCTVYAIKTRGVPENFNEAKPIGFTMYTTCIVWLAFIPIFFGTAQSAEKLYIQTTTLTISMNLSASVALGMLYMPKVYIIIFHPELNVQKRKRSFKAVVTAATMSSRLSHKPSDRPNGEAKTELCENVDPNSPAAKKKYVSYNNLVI", "assay": "Negative allosteric modulation of rat mGlu7 receptor expressed in HEK/GIRK cells assessed as inhibition of L-AP4 induced-calcium mobilization preincubated for 2.3 mins followed by L-AP4 addition measured for 2.6 mins by Fluo-4 AM dye based fluorescence assay", "assay_type": "functional, cell-based"}, "[3]": {"assay": "Fraction unbound in mouse plasma at 5 uM after 4 hrs by equilibrium dialysis based LC/MS/MS analysis", "assay_type": "ADME, cell-free"}, "[4]": {"assay": "Brain to plasma partition coefficient, Kp of the compound in mouse", "assay_type": "ADME"}, "Mus musculus": {"tested_on": "Mus musculus", "assay": "Antidepressant activity in CD-1 mouse assessed as reduction in immobility time at 3 mg/kg administered ip 15 mins prior to test measured for 6 mins by tail suspension test", "assay_type": "functional, organism-based"}, "[5]": {"biological_target": "Alpha-1B adrenergic receptor (Rattus norvegicus) (UniProt P15823)", "sequence (P15823 whole entry)": "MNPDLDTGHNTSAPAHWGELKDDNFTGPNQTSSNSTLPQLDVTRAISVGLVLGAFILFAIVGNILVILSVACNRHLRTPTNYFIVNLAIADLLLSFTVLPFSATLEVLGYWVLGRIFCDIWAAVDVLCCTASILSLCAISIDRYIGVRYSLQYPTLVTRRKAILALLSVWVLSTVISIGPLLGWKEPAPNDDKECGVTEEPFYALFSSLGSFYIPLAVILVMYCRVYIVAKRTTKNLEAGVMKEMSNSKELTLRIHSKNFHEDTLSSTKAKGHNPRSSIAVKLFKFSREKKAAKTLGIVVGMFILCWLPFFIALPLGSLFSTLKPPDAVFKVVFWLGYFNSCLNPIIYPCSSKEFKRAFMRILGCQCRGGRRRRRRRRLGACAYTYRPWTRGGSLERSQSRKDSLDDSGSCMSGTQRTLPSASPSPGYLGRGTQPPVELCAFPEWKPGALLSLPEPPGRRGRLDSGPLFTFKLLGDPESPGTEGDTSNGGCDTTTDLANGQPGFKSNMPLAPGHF", "assay": "Inhibition of rat adrenergic alpha 1B receptor at 10 uM relative to control"}, "[6]": {"biological_target": "Cannabinoid receptor 1 (Homo sapiens) (UniProt P21554)", "sequence (P21554 whole entry)": "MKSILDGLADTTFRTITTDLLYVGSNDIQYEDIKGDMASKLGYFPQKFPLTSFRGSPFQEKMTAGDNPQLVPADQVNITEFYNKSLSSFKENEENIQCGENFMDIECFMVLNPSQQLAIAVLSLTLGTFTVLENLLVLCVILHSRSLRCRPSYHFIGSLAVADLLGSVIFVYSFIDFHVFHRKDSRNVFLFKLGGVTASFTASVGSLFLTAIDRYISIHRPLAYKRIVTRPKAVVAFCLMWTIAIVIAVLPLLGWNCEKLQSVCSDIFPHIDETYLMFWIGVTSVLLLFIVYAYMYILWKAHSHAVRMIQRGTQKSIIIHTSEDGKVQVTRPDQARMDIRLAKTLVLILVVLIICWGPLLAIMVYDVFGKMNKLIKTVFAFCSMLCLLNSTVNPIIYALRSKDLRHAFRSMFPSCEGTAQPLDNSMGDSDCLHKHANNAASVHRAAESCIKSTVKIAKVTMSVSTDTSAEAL", "assay": "Inhibition of human cannabinoid CB1 receptor at 10 uM relative to control"}, "[7]": {"biological_target": "D(3) dopamine receptor (Homo sapiens) (UniProt P35462)", "sequence (P35462 whole entry)": "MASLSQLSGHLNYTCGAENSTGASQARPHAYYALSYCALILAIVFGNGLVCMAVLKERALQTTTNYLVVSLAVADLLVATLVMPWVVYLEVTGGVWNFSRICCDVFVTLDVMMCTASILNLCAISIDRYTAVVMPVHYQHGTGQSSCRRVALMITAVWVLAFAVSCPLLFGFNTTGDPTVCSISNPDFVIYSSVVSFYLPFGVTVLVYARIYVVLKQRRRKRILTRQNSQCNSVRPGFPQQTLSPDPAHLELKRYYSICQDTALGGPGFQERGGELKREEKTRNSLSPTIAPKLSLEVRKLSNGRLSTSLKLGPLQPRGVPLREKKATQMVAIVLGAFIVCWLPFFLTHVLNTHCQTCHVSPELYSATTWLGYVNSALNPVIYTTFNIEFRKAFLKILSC", "assay": "Inhibition of human dopamine D3 receptor at 10 uM relative to control"}, "[8]": {"biological_target": "Gamma-aminobutyric acid type B receptor subunit 1 (Homo sapiens) (UniProt Q9UBS5)", "sequence (Q9UBS5 whole entry)": "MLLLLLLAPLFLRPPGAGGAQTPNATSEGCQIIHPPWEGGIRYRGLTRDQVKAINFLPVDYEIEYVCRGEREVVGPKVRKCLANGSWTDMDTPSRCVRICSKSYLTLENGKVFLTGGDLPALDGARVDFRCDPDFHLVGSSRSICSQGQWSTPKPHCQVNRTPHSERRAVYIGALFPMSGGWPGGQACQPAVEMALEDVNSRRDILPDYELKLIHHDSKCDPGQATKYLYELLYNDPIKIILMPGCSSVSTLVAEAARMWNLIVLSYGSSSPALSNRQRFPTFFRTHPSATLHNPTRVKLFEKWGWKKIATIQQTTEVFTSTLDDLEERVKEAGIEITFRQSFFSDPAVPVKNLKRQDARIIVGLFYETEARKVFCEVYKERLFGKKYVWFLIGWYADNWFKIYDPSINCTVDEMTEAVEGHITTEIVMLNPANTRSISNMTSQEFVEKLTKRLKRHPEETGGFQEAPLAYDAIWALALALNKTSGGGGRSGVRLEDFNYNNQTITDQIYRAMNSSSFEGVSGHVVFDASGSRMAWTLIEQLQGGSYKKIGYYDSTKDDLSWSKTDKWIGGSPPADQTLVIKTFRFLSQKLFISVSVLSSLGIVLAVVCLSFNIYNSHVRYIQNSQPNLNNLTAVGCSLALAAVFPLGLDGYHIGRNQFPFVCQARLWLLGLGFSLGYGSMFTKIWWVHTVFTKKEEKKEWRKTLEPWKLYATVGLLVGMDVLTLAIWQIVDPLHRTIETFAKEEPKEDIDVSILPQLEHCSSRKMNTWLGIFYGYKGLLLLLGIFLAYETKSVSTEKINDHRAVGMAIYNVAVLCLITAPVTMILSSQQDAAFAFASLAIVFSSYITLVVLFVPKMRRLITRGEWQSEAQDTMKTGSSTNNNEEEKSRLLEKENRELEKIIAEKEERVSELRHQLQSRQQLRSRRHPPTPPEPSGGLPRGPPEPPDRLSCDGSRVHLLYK", "assay": "Inhibition of human GABA-B1A receptor at 10 uM relative to control"}, "[9]": {"biological_target": "Glutamate NMDA receptor (Rattus norvegicus) (UniProt P35439+Q00959+Q00960+Q00961+Q62645+Q8VHN2+Q9R1M7)", "assay": "Inhibition of rat glutamate NMDA receptor phencyclidine binding site at 10 uM relative to control", "assay_type": "protein-complex assay"}, "Rattus norvegicus [10]": {"species_on_record": "Rattus norvegicus", "assay": "Inhibition of rat sodium channel site 2 at 10 uM relative to control"}, "Rattus norvegicus [11]": {"species_on_record": "Rattus norvegicus", "assay": "Inhibition of rat thyroid hormone receptor at 10 uM relative to control"}}, "note": "The source made the active and inactive calls. No cut-off for these calls is given here.", "data": [{"compound": "C[C@@H](COc1ccn(-c2ccc(F)cc2)c(=O)c1)Oc1ccccc1", "values": [{"measurement": "EC50", "setting": "[1]", "result": "> 30", "unit": "µM"}, {"measurement": "IC50", "setting": "Cytochrome P450 3A4", "result": "> 30", "unit": "µM"}, {"measurement": "inhibition", "setting": "[2]", "result": "inactive"}, {"measurement": "fu", "setting": "[3]", "result": 0.18}, {"measurement": "Kp", "setting": "[4]", "result": 1.17}, {"measurement": "Activity", "setting": "Mus musculus", "result": "Active"}, {"measurement": "inhibition", "setting": "[5]", "result": "> 50", "unit": "%"}, {"measurement": "inhibition", "setting": "[6]", "result": "> 50", "unit": "%"}, {"measurement": "inhibition", "setting": "[7]", "result": "> 50", "unit": "%"}, {"measurement": "inhibition", "setting": "[8]", "result": "> 50", "unit": "%"}, {"measurement": "inhibition", "setting": "[9]", "result": "> 50", "unit": "%"}, {"measurement": "inhibition", "setting": "Rattus norvegicus [10]", "result": "> 50", "unit": "%"}, {"measurement": "inhibition", "setting": "Rattus norvegicus [11]", "result": "> 50", "unit": "%"}]}]}
